The results in this text go back to PMC11053681, “Gold(I) and Silver(I) Complexes Containing Hybrid Sulfonamide/Thiourea Ligands as Potential Leishmanicidal Agents” (Pharmaceutics, 2024).

Data set [1] can be described thus: Solubility in buffer for the fluorescence experiments. In kind it is physicochemical. Particulars: Tris-HCl buffer. In short, it runs like this:
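Compounds dissolved in DMSO and diluted in 25 mmol L^−1 Tris-HCl, pH 8.0, 100 mmol L^−1 NaCl, final DMSO 2.5%. Increasing ligand with 1 µmol L^−1 LbOYE held 1 h at 25 °C before fluorescence emission spectra were recorded.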

Data set [2] relates to Vero cells. As to the kind of experiment: Cytotoxicity assay on Vero cells (resazurin). Particulars: 24 h treatment. In kind it is cell-based, African green monkey. In short, it runs like this:
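Vero cells seeded at 5 × 10^5 cells/well, grown 24 h at 37 °C, 5% CO2 in RPMI with 10% FBS. Compounds tested in triplicate by serial dilution from 500 µM to 3.9 µM for 24 h. Viability read as resazurin fluorescence.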
(In general: The colour change of resazurin is a common sign of viable cells or microbes.)

For data set [3], the target named is LbOYE (Leishmania braziliensis, UniProt A4H6Z3). As to the kind of experiment: LbOYE enzyme kinetics (NADPH decay at 340 nm). In kind it is biochemical. Particulars: 20 µmol L^−1 compound, 1 µmol L^−1 LbOYE, 100 µmol L^−1 NADPH; substrates NEM and O2. How it is done:
The initial rates were obtained through the decay of the band at 340 nm referring to the maximum absorption of the NADPH (Nicotinamide Adenine Dinucleotide Phosphate) reducer, as previously reported. Solutions containing 1 µmol L^−1 of LbOYE, DMSO or 20 µmol L^−1 of the tested compounds from a stock solution at a concentration of 5 mmol L^−1 in DMSO were prepared in the presence and absence of the substrate N-Ethylmaleimide (NEM). These solutions were left for 30 min at room temperature. After 30 min, the NADPH reducer was added at a final concentration of 100 µmol L^−1.
Figure 7 Initial velocity (V0) for the reaction between 1 µmol L^−1 of LbOYE and 100 µmol L^−1 of NADPH in the presence of DMSO (control) or 20 µmol L^−1 of the compounds tested. Using (A) 100 µmol L^−1 of NEM in the presence of O2 and (B) absence of NEM in the presence of O2. Experiments carried out in phosphate buffer 25 mmol L^−1 pH 7.0, NaCl 100 mmol L^−1.

Data set [4] deals with Leishmania infantum. As to the kind of experiment: Leishmanicidal activity against promastigotes (resazurin). In kind it is cell-based. Particulars: promastigote form, 24 h treatment, resazurin; read-out: IC50 L. infantum. Put shortly:
(§1)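 Stationary-phase (day 5) metacyclic promastigotes were purified by centrifugation and plated at 1 × 10^7 parasites per well in Schneider medium. Compounds were tested in triplicate from 500 µM down to 3.9 µM by serial dilution for 24 h. Viability was read by resazurin fluorescence.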

The subject of data set [5] is Leishmania braziliensis. Described as above. In kind it is cell-based. In short, it runs like this:
as §1

Each structure is given as a SMILES string. Bounds are passed on as bounds.

LbOYE, sequence (A4H6Z3 entry or part of it): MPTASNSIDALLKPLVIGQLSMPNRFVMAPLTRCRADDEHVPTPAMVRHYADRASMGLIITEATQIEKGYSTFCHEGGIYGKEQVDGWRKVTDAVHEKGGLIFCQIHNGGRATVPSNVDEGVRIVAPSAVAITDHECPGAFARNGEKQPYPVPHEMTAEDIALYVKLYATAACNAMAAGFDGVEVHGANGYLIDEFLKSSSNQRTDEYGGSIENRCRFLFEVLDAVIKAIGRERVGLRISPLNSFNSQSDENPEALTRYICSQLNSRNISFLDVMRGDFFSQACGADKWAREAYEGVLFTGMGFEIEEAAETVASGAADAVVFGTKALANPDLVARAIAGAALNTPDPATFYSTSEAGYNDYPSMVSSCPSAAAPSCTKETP

The term CC50 denotes the concentration that lowers cell viability or growth by half. Higher therefore signals better tolerance by the cells. The IC50 is the concentration at which inhibition is half-maximal. With `Cc1ccc(S(=O)(=O)NNC(Nc2ccc(F)cc2)=[S][Ag+][S]=C(NNS(=O)(=O)c2ccc(C)cc2)Nc2ccc(F)cc2)cc1.O=[N+]([O-])[O-]` [Ag3, [Ag(HL3^FPh)2]NO3], in data set [1], the “Solubility in buffer at the concentrations for the fluorescence experiments, in words” value is on record as “passed this stage”. Also, in data set [2], the CC50 is greater than 500 µM. For the same molecule, the “Inhibition of LbOYE reaction (initial velocity V0), in words” value in data set [3] was “capable of inhibiting the reaction of the enzyme both with the NEM and for O2”. Also, the IC50 stood at 92.83 ± 0.072 µM in data set [4] and 233.9 ± 0.031 µM in data set [5] (promastigote form, 24 h treatment, resazurin, read-out: IC50 L. braziliensis). The “SI L. braziliensis” value in data set [5] (selectivity index = CC50 (Vero) / IC50 (L. braziliensis promastigotes)) is greater than 2.14.
